From patent US9695155B2, “Herbicidal substituted pyrimidinyloxy benzene compounds” (E. I. DU PONT DE NEMOURS AND COMPANY, priority 2013, dated 2017)

Columns and labels:
barnyardgrass [1] = assay: Test A preemergence; type: in vivo, Echinochloa crus-galli
Procedure, shortened: (§1)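 Scoring: eye-based comparison with untreated controls, 0 for no effect through 100 for complete control, at about day 10. Treatments: directed soil spray preemergence; foliar spray postemergence on 2–10 cm plants at the one- to two-leaf stage. Medium: loam soil with sand.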

kochia [2] = assay: Test A preemergence; type: in vivo, Kochia scoparia
Procedure, shortened: as §1

ragweed [3] = assay: Test A preemergence; type: in vivo, Ambrosia elatior
Procedure, shortened: as §1

Italian ryegrass [4] = assay: Test A preemergence; type: in vivo, Lolium multiflorum
Procedure, shortened: as §1

giant foxtail [5] = assay: Test A preemergence; type: in vivo, Setaria faberii
Procedure, shortened: as §1

pigweed [6] = assay: Test A preemergence; type: in vivo, Amaranthus retroflexus
Procedure, shortened: as §1

barnyardgrass [7] = assay: Test A postemergence; type: in vivo, Echinochloa crus-galli; conditions: 0 to 100 scale, 0 no effect, 100 complete control
Procedure, shortened: as §1

kochia [8] = assay: Test A postemergence; type: in vivo, Kochia scoparia; conditions: 0 to 100 scale, 0 no effect, 100 complete control
Procedure, shortened: as §1

ragweed [9] = assay: Test A postemergence; type: in vivo, Ambrosia elatior; conditions: 0 to 100 scale, 0 no effect, 100 complete control
Procedure, shortened: as §1

Italian ryegrass [10] = assay: Test A postemergence; type: in vivo, Lolium multiflorum; conditions: 0 to 100 scale, 0 no effect, 100 complete control
Procedure, shortened: as §1

giant foxtail [11] = assay: Test A postemergence; type: in vivo, Setaria faberii; conditions: 0 to 100 scale, 0 no effect, 100 complete control
Procedure, shortened: as §1

pigweed [12] = assay: Test A postemergence; type: in vivo, Amaranthus retroflexus; conditions: 0 to 100 scale, 0 no effect, 100 complete control
Procedure, shortened: as §1

wheat = assay: Test A postemergence; type: in vivo, Triticum aestivum; conditions: 0 to 100 scale, 0 no effect, 100 complete control
Procedure, shortened: as §1

corn = assay: Test A postemergence; type: in vivo, Zea mays; conditions: 0 to 100 scale, 0 no effect, 100 complete control
Procedure, shortened: as §1

blackgrass = assay: Test A postemergence; type: in vivo, Alopecurus myosuroides; conditions: 0 to 100 scale, 0 no effect, 100 complete control
Procedure, shortened: as §1

galium = assay: Test A postemergence; type: in vivo, Galium aparine; conditions: 0 to 100 scale, 0 no effect, 100 complete control
Procedure, shortened: as §1

rice = assay: Test B flooded paddy test; type: in vivo, Oryza sativa; conditions: Flood, 250 g ai/ha; 0 to 100 scale where 0 is no effect and 100 is complete control
Procedure, shortened: (§2)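 Plants at 2-leaf stage; pots flooded to 3 cm above soil and compound applied directly into paddy water, depth held throughout. After 13 to 15 days in greenhouse, visual rating versus controls on 0 (no effect) to 100 (complete control) scale.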

sedge, umbrella = assay: Test B flooded paddy test; type: in vivo, Cyperus difformis; conditions: Flood, 250 g ai/ha; 0 to 100 scale where 0 is no effect and 100 is complete control
Procedure, shortened: as §2

Heteranthera limosa = assay: Test B flooded paddy test; type: in vivo; conditions: Flood, 250 g ai/ha; 0 to 100 scale where 0 is no effect and 100 is complete control
Procedure, shortened: as §2

barnyardgrass [13] = assay: Test B flooded paddy test; type: in vivo, Echinochloa crus-galli; conditions: Flood, 250 g ai/ha; 0 to 100 scale where 0 is no effect and 100 is complete control
Procedure, shortened: as §2

[14] = 31 g ai/ha, 0 to 100 scale where 0 is no effect and 100 is complete control, visual, approximately 10 days

FC(F)c1cccc(Oc2ncc(Cl)cn2)c1-n1cncc1Br [Compound 259] was tested, and the “Plant response rating, Barnyardgrass” value (barnyardgrass [1]; [14]) was 10, the “Barnyardgrass plant response rating (0 to 100 scale, 0 is no effect, 100 is complete control)” value (barnyardgrass [1]; 125 g ai/ha) was 70 and the “Plant response rating, Kochia” value (kochia [2]; [14]) was 20. For the same molecule, the “Kochia plant response rating (0 to 100 scale)” value (kochia [2]; 125 g ai/ha) was 80, the “Plant response rating, Ragweed” value (ragweed [3]; [14]) was 10 and the “Ragweed plant response rating (0 to 100 scale)” value (ragweed [3]; 125 g ai/ha) was 70. For the same molecule, the “Plant response rating, Ryegrass, Italian” value (Italian ryegrass [4]; [14]) was 0, the “Ryegrass, Italian plant response rating (0 to 100 scale)” value (Italian ryegrass [4]; 125 g ai/ha) was 0 and the “Plant response rating, Foxtail, Giant” value (giant foxtail [5]; [14]) was 30. For the same molecule, the “Foxtail, Giant plant response rating (0 to 100 scale)” value (giant foxtail [5]; 125 g ai/ha) was 100, the “Plant response rating, Pigweed” value (pigweed [6]; [14]) was 70 and the “Pigweed plant response rating (0 to 100 scale)” value (pigweed [6]; 125 g ai/ha) was 100. The “Plant response rating, Barnyardgrass” value (barnyardgrass [7]; 31 g ai/ha) was 0, the “Plant response rating, Barnyardgrass” value (barnyardgrass [7]; 125 g ai/ha) was 30 and the “Plant response rating, Kochia” value (kochia [8]; 31 g ai/ha) was 60. For the same molecule, the “Plant response rating, Kochia” value (kochia [8]; 125 g ai/ha) was 80, the “Plant response rating, Ragweed” value (ragweed [9]; 31 g ai/ha) was 50 and the “Plant response rating, Ragweed” value (ragweed [9]; 125 g ai/ha) was 70. For the same molecule, the “Plant response rating, Ryegrass, Italian” value (Italian ryegrass [10]; 31 g ai/ha) was 0, the “Plant response rating, Ryegrass, Italian” value (Italian ryegrass [10]; 125 g ai/ha) was 10 and the “Plant response rating, Foxtail, Giant” value (giant foxtail [11]; 31 g ai/ha) was 10. For the same molecule, the “Plant response rating, Foxtail, Giant” value (giant foxtail [11]; 125 g ai/ha) was 40, the “Plant response rating, Pigweed” value (pigweed [12]; 31 g ai/ha) was 70 and the “Plant response rating, Pigweed” value (pigweed [12]; 125 g ai/ha) was 90. For the same molecule, the “Plant response rating, Wheat” value (wheat; 31 g ai/ha) was 0, the “Plant response rating, Wheat” value (wheat; 125 g ai/ha) was 0 and the “Plant response rating, Corn” value (corn; 31 g ai/ha) was 0. For the same molecule, the “Plant response rating, Corn” value (corn; 125 g ai/ha) was 10, the “Plant response rating, Blackgrass” value (blackgrass; 31 g ai/ha) was 20 and the “Plant response rating, Blackgrass” value (blackgrass; 125 g ai/ha) was 50. For the same molecule, the “Plant response rating, Galium” value (galium; 31 g ai/ha) was 70, the “Plant response rating, Galium” value (galium; 125 g ai/ha) was 80 and the “Plant response rating, Rice” value (rice) was 0. The “Plant response rating, Sedge, Umbrella” value (sedge, umbrella) was 75, the “Plant response rating, Ducksalad” value (Heteranthera limosa) was 70 and the “Plant response rating, Barnyardgrass” value (barnyardgrass [13]) was 0.
